“And” between values parts separate entries of the source, which are not always exact repeats. Identical values can stand only once. Bridge positions count the residues as written; N and C are the ends. Square brackets hold non-standard residues; d marks the D form. Peptide text beside a SMILES is read from it.
What was measured:
[1] = system: serum glucagon; assay: Glucagon Inhibition In Dogs (I.V. infusion of test compound with L-alanine infusion, serum glucagon by radioimmunoassay); assay type: in vivo, dog; details: for inhibition of glucagon concentration: fasted dog, I.V. infusion, doses: Example 4 0.147, Example 7 0.182, Example 10 0.247 μg/kg/min, Example 14 0.092, 0.126, 0.128, 0.198 μg/kg/min and 0.305 mg/kg/min
Method: (§1) A normal dog is fasted overnight. An intravenous (I.V.) infusion of the test compound (dissolved in saline) is begun. Thirty minutes thereafter an additional infusion of L-alanine (dissolved in saline) is begun and is continued for a total of 15 minutes so that a total dose of about 1 mmole of L-alanine per kg. body weight is given. Infusion of the test compound is continued for an additional 15 minute period.
(§2) Blood samples are taken periodically before (at -20, -10 and -1 minutes) and after (5, 10, 15, 30, 35, 40, 45, 50, 60, 90, 120 and 150 minutes) the start of the infusion of the test compound. The serum insulin and serum glucagon concentrations in the blood are determined by radioimmunoassay. A plot is made of the glucagon and insulin concentrations versus time. The plot obtained from the test compound is compared to plots obtained from somatostatin and saline (controls) in similar experiments.
(§3) Infusion of L-alanine (in the absence of somatostatin or active test compound) causes an abrupt increase in serum insulin and glucagon concentrations. The concentrations return to basal levels after the L-alanine infusion is terminated. Infusion of somalostatin (alone) causes a decrease in basal serum concentrations of insulin and glucagon.

[2] = system: serum insulin; assay: Insulin Inhibition In Dogs (I.V. infusion of test compound with L-alanine infusion, serum insulin by radioimmunoassay); assay type: in vivo, dog; details: for inhibition of insulin concentration: fasted dog, I.V. infusion, doses: Example 4 0.147, Example 7 0.182, Example 10 0.247 μg/kg/min, Example 14 0.092, 0.126, 0.128, 0.198 μg/kg/min and 0.305 mg/kg/min
Method: as §1, §2, §3

[3] = system: growth hormone (GH) secretion; assay: Growth Hormone Inhibition In Rats (pentobarbital-stimulated GH secretion, serum GH by radioimmunoassay); assay type: in vivo; details: male rats, peptide S.C.; for Serum Growth Hormone Conc. Mean ± SEM: pentobarbital 4 mg/rat I.P.
Method: This test is a modification of the method of P. Brazeau et al. Endocrinology, 94, 184 (1974). Male rats (weighing 100-110 g.) are divided into three groups of eight rats each. Each rat is administered sodium pentobarbital at a dose of 4 mg/rat (I.P.) to stimulate growth hormone (GH) secretion. Simultaneously, one group of rats receives the test compound (S.C.); the second group receives somatostatin (S.C.); and the third group (control) receives saline (S.C.). Twenty-minutes later, the animals are decapitated and blood samples are collected. The serum concentration of growth hormone (GH) is determined by radioimmunoassay. The mean GH concentration (±standard error of the mean) is calculated for each group. The percent inhibition of GH release (as compared to saline controls) is then calculated for the test compound and for somatostatin. When tested as above-described, the peptides of Example 4, 7, 10, and 14, representative of the peptides of Formula III, gave the results set forth below in Table I: […]

[4] = dog, in the presence of L-alanine
[5] = dog, infusion alone (no L-alanine)
[6] = Dose (mg/kg) 2, 20 min after dosing
[7] = Dose (mg/kg) 50, 20 min after dosing

| Structure (SMILES) | effect on the increase in glucagon concentration induced by L-alanine [1, 4] | effect on basal serum concentration of glucagon [1, 5] | effect on the increase in insulin concentration induced by L-alanine [2, 4] | effect on basal serum concentration of insulin [2, 5] | % Inhibition of GH release (as compared to saline controls) ([3]; Dose (mg/kg) 2) | % Inhibition of GH release (as compared to saline controls) ([3]; Dose (mg/kg) 50) | inhibition of glucagon concentration [1] | inhibition of insulin concentration [2] | Serum Growth Hormone Conc. Mean ± SEM [3, 6] | Serum Growth Hormone Conc. Mean ± SEM [3, 7] |
| --- | --- | --- | --- | --- | --- | --- | --- | --- | --- | --- |
| C[C@H](N)C(=O)NCC(=O)N[C@H]1CSSC[C@@H](C(=O)O)NC(=O)[C@H](CO)NC(=O)[C@H]([C@@H](C)O)NC(=O)[C@H](Cc2ccccc2)NC(=O)[C@H]([C@@H](C)O)NC(=O)[C@H](CCCCN)NC(=O)[C@H](Cc2c[nH]c3ccccc23)NC(=O)[C@H](Cc2ccccc2)NC(=O)[C@H](Cc2ccccc2)NC(=O)[C@H](CC(N)=O)NC(=O)[C@H](CCCCN)NC1=O [Somatostatin] | inhibits the increase | decrease | inhibits the increase | decrease | 0% | 86.6% and 84.9% and 89.7% and 93% |  |  |  |  |
| CC(C)[C@@H](N)C(=O)NCC(=O)N[C@H]1CSSC[C@@H](C(=O)O)NC(=O)[C@H](CO)NC(=O)[C@H]([C@@H](C)O)NC(=O)[C@@H](Cc2ccccc2)NC(=O)[C@H]([C@@H](C)O)NC(=O)[C@H](CCCCN)NC(=O)[C@@H](Cc2c[nH]c3ccccc23)NC(=O)[C@H](Cc2ccccc2)NC(=O)[C@H](Cc2ccccc2)NC(=O)[C@H](C)NC(=O)[C@H](CCCCN)NC1=O [Example 7, D-Valyl-L-glycyl-L-cysteinyl-L-lysyl-L-alanyl-L-phenylalanyl-L-phenylalanyl-D-tryptophyl-L-lysyl-L-threonyl-D-phenyl-alanyl-L-threonyl-L-seryl-L-cysteine cyclic (3->14) disulfide] (H-[dV]GCKAFF[dW]KT[dF]TSC-OH; disulfide 3-14) |  |  |  |  | 45.9% | 77.5% | no significant inhibition | no significant inhibition | 94.7 ± 22 ng/mL | 38.7 ng/mL |
| C[C@H](N)C(=O)N[C@H](C)C(=O)N[C@H]1CSSC[C@@H](C(=O)O)NC(=O)[C@H](CO)NC(=O)[C@H]([C@@H](C)O)NC(=O)[C@@H](Cc2ccccc2)NC(=O)[C@H]([C@@H](C)O)NC(=O)[C@H](CCCCN)NC(=O)[C@@H](Cc2c[nH]c3ccccc23)NC(=O)[C@H](Cc2ccccc2)NC(=O)[C@H](Cc2ccccc2)NC(=O)[C@H](C)NC(=O)[C@H](CCCCN)NC1=O [Example 14, L-Alanyl-D-alanyl-L-cysteinyl-L-lysyl-L-alanyl-L-phenylalanyl-L-phenylalanyl-D-tryptophyl-L-lysyl-L-threonyl-D-phenylalanyl-L-threonyl-L-seryl-L-cysteine cyclic (3->14) disulfide] (H-A[dA]CKAFF[dW]KT[dF]TSC-OH; disulfide 3-14) |  |  |  |  | 20% | 53% | no significant inhibition | no significant inhibition | 132 ± 69.4 ng/mL | 77.8 ± 19.6 ng/mL |
| CC(C)C[C@@H]1NC(=O)[C@H](C)NC(=O)[C@H](CCCCN)NC(=O)[C@@H](NC(=O)CNC(=O)[C@H](N)C(C)C)CSSC[C@@H](C(=O)O)NC(=O)[C@H](CO)NC(=O)[C@H]([C@@H](C)O)NC(=O)[C@@H](Cc2ccccc2)NC(=O)[C@H]([C@@H](C)O)NC(=O)[C@H](CCCCN)NC(=O)[C@@H](Cc2c[nH]c3ccccc23)NC(=O)[C@H](Cc2ccccc2)NC1=O [Example 10, D-Valyl-L-glycyl-L-cysteinyl-L-lysyl-L-alanyl-L-leucyl-L-phenylalanyl-D-tryptophyl-L-lysyl-L-threonyl-D-phenylalanyl-L-threonyl-L-seryl-L-cysteine cyclic (3->14) disulfide] (H-[dV]GCKALF[dW]KT[dF]TSC-OH; disulfide 3-14) |  |  |  |  | 37.3% | 29.3% | no significant inhibition | no significant inhibition | 82.8 ± 19.6 ng/mL | 93.5 ± 22.6 ng/mL |
| CC(C)[C@@H](N)C(=O)NCC(=O)N[C@H]1CSSC[C@@H](C(=O)O)NC(=O)[C@H](CO)NC(=O)[C@H]([C@@H](C)O)NC(=O)[C@@H](Cc2ccccc2)NC(=O)[C@H]([C@@H](C)O)NC(=O)[C@H](CCCCN)NC(=O)[C@@H](Cc2c[nH]c3ccccc23)NC(=O)[C@H](Cc2ccccc2)NC(=O)[C@@H](Cc2ccccc2)NC(=O)[C@H](C)NC(=O)[C@H](CCCCN)NC1=O [Example 4, D-Valyl-L-glycyl-L-cysteinyl-L-lysyl-L-alanyl-D-phenylalanyl-L-phenylalanyl-D-tryptophyl-L-lysyl-L-threonyl-D-phenyl-alanyl-L-threonyl-L-seryl-L-cysteine cyclic (3->14) disulfide] (H-[dV]GCKA[dF]F[dW]KT[dF]TSC-OH; disulfide 3-14) |  |  |  |  | 27.9% | 68.1% | no significant inhibition | no significant inhibition | 72.1 ± 27.3 ng/mL | 31.9 ± 16.6 ng/mL |
